From US9481639B2, “Substituted tetracycline compounds for treatment of inflammatory skin disorders” (Paratek Pharmaceuticals, Inc., priority 2006, dated 2016)
Values after ≈ are worked out from the molar mass of the structure shown. Read-outs that look alike come from different tables or passages of the source.

What was measured:
[1] = test system: B. thetaiotaomicron ATCC 29741; assay: Antibacterial MIC, CLSI broth microdilution; format: cell-based
Protocol: (§1) Gram (−) and gram (+) antibacterial minimum inhibitory concentration (MIC) values (μg/mL) were obtained using CLSI methodology for anti-bacterial susceptibility testing. On each day of testing, serial dilutions of compounds were prepared in microdilution plates using a Tecan robotic workstation. Mueller Hinton broth cultures of representative sensitive and resistant gram negative strains were grown or adjusted to match the turbidity of a 0.5 McFarland standard. 1:200 dilutions were made in an appropriate broth (cation supplemented Mueller Hinton broth) to allow a final inoculum of 1×10^5 cfu. Plates were incubated at 35° C. in ambient air for 18-24 hours, were read spectrophotometrically and checked manually for evidence of bacterial growth. The lowest dilution of compound that inhibited growth was recorded as the MIC. Lysed horse blood was used to supplement broth for testing S. pneumoniae. The MIC's for each compound were assessed against S. aureus, S. pneumoniae, P. acnes, E. coli and B. theta.

[2] = test system: carrageenan induced rat paw inflammation; assay: Rat carrageenan-induced paw edema inflammatory model; format: in vivo; conditions: for 50% effective concentration (EC50), carrageenan induced paw inflammation: IP 30 minutes before carrageenan, paw volume 3 hours after
Protocol: The model used a sub-plantar injection of carrageenan in the rat to induce an inflammatory response. The test compound or saline (control) was administered IP 30 minutes before a subplantar injection of carrageenan (1.5 mg/0.1 mL). Paw volume was measured […] before subplantar injection and again 3 hours after the injection of carrageenan using a plethysmometer. Significant differences as determined by a Kruskal-Wallis One Way ANOVA are noted between the inflammation of the untreated controls versus treated animals […]

in vitro = format: cell-based
Protocol: Mammalian cell cytotoxicity was assessed to evaluate potential in vivo risks associated with the tetracycline compounds of the invention. A soluble, non-toxic redox dye (“Resazurin”; Alamar Blue) was used to assess a tetracycline compound's effect on cellular metabolism. At the onset of the experiment, cultures of mammalian COS-1 or CHO cells were washed, trypsinized, and harvested. […] On the next day, serial dilutions of test drug were prepared under sterile conditions and transferred to cell plates. Plates were then incubated under the above conditions for 24 hours. Following the incubation period, the media/drug was aspirated, and 50 μL of resazurin was added. Plates were then incubated under the above conditions for 2 hours and then in the dark at room temperature for an additional 30 minutes. Fluorescence measurements were taken (excitation 535 nm, emission 590 nm) and toxic effects in treated versus control cells were compared based on the degree of fluorescence in each well.

[3] = test system: S. pneumoniae 157E - Strep; assay: Antibacterial MIC, CLSI broth microdilution; format: cell-based; conditions: Streptococcus pneumoniae, 157ESTREP; broth supplemented with lysed horse blood
Protocol: as §1

E. coli MG. 1655 = assay: Antibacterial MIC, CLSI broth microdilution; format: cell-based; conditions: Escherichia coli, 35° C., 18-24 hours
Protocol: as §1

E. coli ATCC 25922 = assay: Antibacterial MIC, CLSI broth microdilution; format: cell-based; conditions: Escherichia coli, ATCC25922; 35° C., 18-24 hours
Protocol: as §1

P. acnes ATCC 6919 = assay: Antibacterial MIC, CLSI broth microdilution; format: cell-based; conditions: Cutibacterium acnes, ATCC6919
Protocol: as §1

P. acnes ATCC 11827 = assay: Antibacterial MIC, CLSI broth microdilution; format: cell-based; conditions: Cutibacterium acnes, ATCC11827
Protocol: as §1

S. aureus RN450 [4] = assay: Antibacterial MIC, CLSI broth microdilution; format: cell-based; conditions: Staphylococcus aureus, 35° C., 18-24 hours
Protocol: as §1

S. aureus RN450 [5] = assay: In vivo anti-bacterial activity, S. aureus lethal infection model; conditions: Staphylococcus aureus, sc; mice, lethal IP S. aureus RN450, single subcutaneous dose 5 mg/kg, survival at 24 hours; read-out: Percent Survival
Protocol: Groups of five mice were injected intraperitoneally with a lethal dose of S. aureus RN450 in a medium of mucin. Mice were evaluated at 24 hours to determine survival. […] In some instances, a dose response study was performed with the compound such that a PD50 (a dose of compound that protects 50% of the animals) could be calculated.

[6] = Bacteroides thetaiotaomicron, ATCC29741, read-out: MIC B. thetaiotaomicron ATCC 29741

SMILES | MIC [1, 6] [µg/mL] | 50% effective concentration (EC50), carrageenan induced paw inflammation [2] | IC50 at 24 h (in vitro; African green monkey) [µg/mL] | IC50 at 24 h (in vitro; Chinese hamster) [µg/mL] | MIC [3] [µg/mL] | MIC (E. coli MG. 1655) [µg/mL] | MIC ([1]; Bacteroides thetaiotaomicron, ATCC29741; read-out: MIC B. thetaiotaomicron ATCC 29741) [µg/mL] | MIC (E. coli ATCC 25922) [µg/mL] | MIC (P. acnes ATCC 6919) [µg/mL] | MIC (P. acnes ATCC 11827) [µg/mL] | MIC (S. aureus RN450 [4]) [µg/mL] | modulation of carrageenan induced inflammation compared with reference tetracycline ([2]; IP, various doses, A vs doxycycline (FIG. 1), P vs minocycline (FIG. 2)) | responders at 5 mg/kg (S. aureus RN450 [5]) [%]
CN(C)c1ccc(O)c2c1C[C@H]1C[C@H]3[C@H](N(C)C)C(O)=C(C(N)=O)C(=O)[C@@]3(O)C(O)=C1C2=O [Minocycline, reference compound] | 4 to 8 (≈ 8.74 to 17.5 µM) | approximately 50 mg/kg |  |  |  |  |  |  |  |  |  |  | 
CCO/N=C(/C)c1ccc(O)c2c1CC1CC3[C@H](N(C)C)C(O)=C(C(N)=O)C(=O)[C@@]3(O)C(O)=C1C2=O (stereo partly drawn) [Compound A] |  |  | < 35 | < 35 | < 4 | 4 to 8 (≈ 8.01 to 16 µM) | > 8 | < 4 | < 4 | < 4 | < 4 | improved activity | 100
C[C@H]1c2cccc(O)c2C(=O)C2=C(O)[C@]3(O)C(=O)C(C(N)=O)=C(O)[C@@H](N(C)C)[C@@H]3[C@@H](O)[C@@H]21 [Doxycycline, reference compound] | 4 to 8 (≈ 9 to 18 µM) | approximately 50 mg/kg |  |  |  |  |  |  |  |  |  |  | 
